Patent US20020137929A1, “1 - (3-heterocyclylphenyl) isothiourea, -isourea, -guanidine and -amidine herbicidal agents” (Intellectual Property Department, BASF Aktiengesellschaft, priority 1998, published 2002)

Assays:
AMBEL (Ragweed, Common) [1] = test: Preemergence herbicidal evaluation; assay type: in vivo, Ambrosia artemisifolia; settings: rated 4-5 weeks after treatment
In short: (§1)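 Greenhouse preemergence test: seed-soil mix sown on ~1 inch soil; aqueous acetone spray at equivalent of ~0.0156–0.500 kg/ha; greenhouse-held and watered; scored 0–9 visually at 4–5 weeks.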

SETVI (Foxtail, Green) = test: Postemergence herbicidal evaluation; assay type: in vivo, Setaria viridis; settings: postemergence
In short: (§2)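 Scores (0–9) reflect plant stand, vigor, malformation, size, chlorosis and general appearance relative to control, read 4 to 5 weeks after treatment and averaged where tests were repeated. Application: about 0.0156–0.500 kg/ha sprayed at 40 psi onto two-week seedlings.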

CYPSE (Flatsedge) = test: Preemergence weed control under flooded paddy conditions; assay type: in vivo, Cyperus serotinus; settings: rated 3-4 weeks after treatment
In short: (§3)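 Silt loam, seeds in top 0.5 cm; flood held 1.5-3 cm; test cpd as acetone/water 50/50 into flood water, ~0.0313-0.500 kg/ha a.i.; greenhouse 3-4 wk; visual 0-9 score vs control.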

ORYSAT (Rice, Tebonnet) = test: Postemergence herbicidal evaluation; assay type: in vivo, Oryza sativa, (L.) Tebonnet; settings: postemergence
In short: as §2

ABUTH (Velvetleaf) = test: Preemergence herbicidal evaluation; assay type: in vivo, Abutilon theophrasti; settings: rated 4-5 weeks after treatment
In short: as §1

ECHCG (Barnyardgrass) = test: Postemergence herbicidal evaluation; assay type: in vivo, Echinochloa crus-galli; settings: postemergence
In short: as §2

ZEAMX (Corn, Field) = test: Preemergence herbicidal evaluation; assay type: in vivo, Zea mays; settings: rated 4-5 weeks after treatment
In short: as §1

AMBEL (Ragweed, Common) [2] = test: Postemergence herbicidal evaluation; assay type: in vivo, Ambrosia artemisifolia; settings: postemergence
In short: as §2

MOOVA (Monochoria) = test: Postemergence weed control under flooded paddy conditions; assay type: in vivo, Monochoria vaginalis; settings: postemergence weeds
In short: (§4)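 Containers holding 3–5 cm weeds and rice at 1.5–2.5 leaves are flooded to 1.5–3 cm above soil. Compound in 50/50 v/v aqueous/acetone is then added directly to the water, about 0.0313–0.500 kg/ha. Plants are kept in the greenhouse and rated 0–9 visually at 3–4 weeks.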

[3] = tested on: CHEAL (Lambsquarters, Common); test: Preemergence herbicidal evaluation; assay type: in vivo, Chenopodium album; settings: rated 4-5 weeks after treatment
In short: as §1

CYPIR (Rice Flatsedge) = test: Preemergence weed control under flooded paddy conditions; assay type: in vivo, Cyperus iria; settings: rated 3-4 weeks after treatment
In short: as §3

[4] = tested on: ECHORC (Watergrass (Calif.)); test: as above; assay type: in vivo, Echinochloa oryzoides; settings: rated 3-4 weeks after treatment
In short: as §3

[5] = tested on: SAGPY (Arrowhead (Pygmaea)); test: Postemergence weed control under flooded paddy conditions; assay type: in vivo, Sagittaria pygmaea; settings: postemergence weeds
In short: as §4

[6] = tested on: GLXMAW (Soybean, Williams); test: Postemergence herbicidal evaluation; assay type: in vivo, Glycine max, (L.) Merr. cv Williams; settings: postemergence
In short: as §2

[7] = rate 0.0313 kg/ha, 3-4 weeks after treatment
[8] = rate 0.0625 kg/ha, 3-4 weeks after treatment
[9] = rate 0.1250 kg/ha, 3-4 weeks after treatment
[10] = rate 0.2500 kg/ha, 3-4 weeks after treatment
[11] = rate 0.5000 kg/ha, 3-4 weeks after treatment
[12] = Rate 0.0313 kg/ha, rated 3 to 4 weeks after treatment
[13] = Rate 0.0625 kg/ha, rated 3 to 4 weeks after treatment
[14] = Rate 0.1250 kg/ha, rated 3 to 4 weeks after treatment
[15] = Rate 0.2500 kg/ha, rated 3 to 4 weeks after treatment

Compound: CC1SC(=Nc2cc(N3C(=O)C4=C(CCCC4)C3=O)c(F)cc2Cl)N(C)C1=O (stereo not shown) [Compound 4]
- AMBEL preemergence herbicidal rating (AMBEL (Ragweed, Common) [1]; rate 0.1250 kg/ha): 0.0
- AMBEL preemergence herbicidal rating (AMBEL (Ragweed, Common) [1]; rate 0.2500 kg/ha): 1.0
- AMBEL preemergence herbicidal rating (AMBEL (Ragweed, Common) [1]; rate 0.5000 kg/ha): 4.0
- SETVI herbicidal rating (SETVI (Foxtail, Green); rate 0.0313 kg/ha): 0.0
- SETVI herbicidal rating (SETVI (Foxtail, Green); rate 0.0625 kg/ha): 2.0
- SETVI herbicidal rating (SETVI (Foxtail, Green); rate 0.1250 kg/ha): 0.0
- SETVI herbicidal rating (SETVI (Foxtail, Green); rate 0.2500 kg/ha): 2.0
- SETVI herbicidal rating (SETVI (Foxtail, Green); rate 0.5000 kg/ha): 8.0
- Herbicidal rating CYPSE (CYPSE (Flatsedge); 0.0313 kg/ha): 0.0
- Herbicidal rating CYPSE (CYPSE (Flatsedge); 0.0625 kg/ha): 0.0
- Herbicidal rating CYPSE (CYPSE (Flatsedge); 0.1250 kg/ha): 0.0
- Herbicidal rating CYPSE (CYPSE (Flatsedge); 0.2500 kg/ha): 0.0
- Herbicidal rating CYPSE (CYPSE (Flatsedge); 0.5000 kg/ha): 0.0
- ORYSAT herbicidal rating (ORYSAT (Rice, Tebonnet); rate 0.0313 kg/ha): 1.0
- ORYSAT herbicidal rating (ORYSAT (Rice, Tebonnet); rate 0.0625 kg/ha): 1.0
- ORYSAT herbicidal rating (ORYSAT (Rice, Tebonnet); rate 0.1250 kg/ha): 2.5
- ORYSAT herbicidal rating (ORYSAT (Rice, Tebonnet); rate 0.2500 kg/ha): 1.5
- ORYSAT herbicidal rating (ORYSAT (Rice, Tebonnet); rate 0.5000 kg/ha): 3.0
- ABUTH preemergence herbicidal rating (ABUTH (Velvetleaf); rate 0.1250 kg/ha): 0.0
- ABUTH preemergence herbicidal rating (ABUTH (Velvetleaf); rate 0.2500 kg/ha): 2.0
- ABUTH preemergence herbicidal rating (ABUTH (Velvetleaf); rate 0.5000 kg/ha): 8.0
- ECHCG herbicidal rating (ECHCG (Barnyardgrass); rate 0.0313 kg/ha): 0.0
- ECHCG herbicidal rating (ECHCG (Barnyardgrass); rate 0.0625 kg/ha): 0.0
- ECHCG herbicidal rating (ECHCG (Barnyardgrass); rate 0.1250 kg/ha): 0.0
- ECHCG herbicidal rating (ECHCG (Barnyardgrass); rate 0.2500 kg/ha): 4.0
- ECHCG herbicidal rating (ECHCG (Barnyardgrass); rate 0.5000 kg/ha): 2.0
- ZEAMX preemergence herbicidal rating (ZEAMX (Corn, Field); rate 0.1250 kg/ha): 2.0
- ZEAMX preemergence herbicidal rating (ZEAMX (Corn, Field); rate 0.2500 kg/ha): 2.0
- ZEAMX preemergence herbicidal rating (ZEAMX (Corn, Field); rate 0.5000 kg/ha): 4.0
- AMBEL herbicidal rating (AMBEL (Ragweed, Common) [2]; rate 0.0313 kg/ha): 0.0
- AMBEL herbicidal rating (AMBEL (Ragweed, Common) [2]; rate 0.0625 kg/ha): 0.0
- AMBEL herbicidal rating (AMBEL (Ragweed, Common) [2]; rate 0.1250 kg/ha): 2.0
- AMBEL herbicidal rating (AMBEL (Ragweed, Common) [2]; rate 0.2500 kg/ha): 6.0
- AMBEL herbicidal rating (AMBEL (Ragweed, Common) [2]; rate 0.5000 kg/ha): 6.0
- Herbicidal rating MOOVA (MOOVA (Monochoria); [7]): 1.0
- Herbicidal rating MOOVA (MOOVA (Monochoria); [8]): 3.5
- Herbicidal rating MOOVA (MOOVA (Monochoria); [9]): 4.0
- Herbicidal rating MOOVA (MOOVA (Monochoria); [10]): 5.5
- Herbicidal rating MOOVA (MOOVA (Monochoria); [11]): 8.0
- CHEAL preemergence herbicidal rating ([3]; rate 0.1250 kg/ha): 0.0
- CHEAL preemergence herbicidal rating ([3]; rate 0.2500 kg/ha): 2.0
- CHEAL preemergence herbicidal rating ([3]; rate 0.5000 kg/ha): 9.0
- Herbicidal rating CYPIR (CYPIR (Rice Flatsedge); 0.0313 kg/ha): 0.0
- Herbicidal rating CYPIR (CYPIR (Rice Flatsedge); 0.0625 kg/ha): 4.0
- Herbicidal rating CYPIR (CYPIR (Rice Flatsedge); 0.1250 kg/ha): 8.0
- Herbicidal rating CYPIR (CYPIR (Rice Flatsedge); 0.2500 kg/ha): 9.0
- Herbicidal rating CYPIR (CYPIR (Rice Flatsedge); 0.5000 kg/ha): 9.0
- Herbicidal rating ECHORC ([4]; 0.0313 kg/ha): 2.0
- Herbicidal rating ECHORC ([4]; 0.0625 kg/ha): 4.0
- Herbicidal rating ECHORC ([4]; 0.1250 kg/ha): 7.0
- Herbicidal rating ECHORC ([4]; 0.2500 kg/ha): 8.0
- Herbicidal rating ECHORC ([4]; 0.5000 kg/ha): 9.0
- Herbicidal rating SAGPY [5, 7]: 0.0
- Herbicidal rating SAGPY [5, 8]: 0.0
- Herbicidal rating SAGPY [5, 9]: 0.0
- Herbicidal rating SAGPY [5, 10]: 0.0
- Herbicidal rating SAGPY [5, 11]: 0.0

Compound: CCOC(=O)CN1C(=O)C(Cc2ccccc2OC(C)C(=O)O)S/C1=N/c1cc(-n2c(=O)cc(C(F)(F)F)n(C)c2=O)c(F)cc1Cl (stereo not shown) [Compound 114, 5-[o-(1-Carboxyethoxy)benzyl]-2-{{2-chloro-5-[3,6-dihydro-3-methyl-2,6-dioxo-4-(trifluoromethyl)-1(2H)-pyrimidinyl]-4-fluorophenyl}imino}-4-oxo-3-thiazolidineacetic acid, 3-ethyl ester]
- Preemergence herbicidal rating AMBEL (AMBEL (Ragweed, Common) [1]; rate 0.0156 kg/ha): 0.0
- Preemergence herbicidal rating AMBEL (AMBEL (Ragweed, Common) [1]; rate 0.0313 kg/ha): 0.0
- Preemergence herbicidal rating AMBEL (AMBEL (Ragweed, Common) [1]; rate 0.0625 kg/ha): 0.0
- Preemergence herbicidal rating AMBEL (AMBEL (Ragweed, Common) [1]; rate 0.1250 kg/ha): 5.0
- Preemergence herbicidal rating AMBEL (AMBEL (Ragweed, Common) [1]; rate 0.2500 kg/ha): 7.0
- herbicidal rating SETVI (SETVI (Foxtail, Green); rate 0.0158 kg/ha): 4.0
- herbicidal rating SETVI (SETVI (Foxtail, Green); rate 0.0315 kg/ha): 3.0
- herbicidal rating SETVI (SETVI (Foxtail, Green); rate 0.0630 kg/ha): 9.0
- herbicidal rating GLXMAW ([6]; rate 0.0158 kg/ha): 6.0
- herbicidal rating GLXMAW ([6]; rate 0.0315 kg/ha): 5.5
- herbicidal rating GLXMAW ([6]; rate 0.0630 kg/ha): 6.5
- CYPSE herbicidal effect rating (CYPSE (Flatsedge); 0.0313 kg/ha): 3.5
- CYPSE herbicidal effect rating (CYPSE (Flatsedge); 0.0625 kg/ha): 4.5
- CYPSE herbicidal effect rating (CYPSE (Flatsedge); 0.1250 kg/ha): 3.5
- CYPSE herbicidal effect rating (CYPSE (Flatsedge); 0.2500 kg/ha): 4.5
- herbicidal rating ORYSAT (ORYSAT (Rice, Tebonnet); rate 0.0158 kg/ha): 1.5
- herbicidal rating ORYSAT (ORYSAT (Rice, Tebonnet); rate 0.0315 kg/ha): 2.0
- herbicidal rating ORYSAT (ORYSAT (Rice, Tebonnet); rate 0.0630 kg/ha): 3.0
- Preemergence herbicidal rating ABUTH (ABUTH (Velvetleaf); rate 0.0156 kg/ha): 0.0
- Preemergence herbicidal rating ABUTH (ABUTH (Velvetleaf); rate 0.0313 kg/ha): 1.0
- Preemergence herbicidal rating ABUTH (ABUTH (Velvetleaf); rate 0.0625 kg/ha): 6.0
- Preemergence herbicidal rating ABUTH (ABUTH (Velvetleaf); rate 0.1250 kg/ha): 9.0
- Preemergence herbicidal rating ABUTH (ABUTH (Velvetleaf); rate 0.2500 kg/ha): 9.0
- herbicidal rating ECHCG (ECHCG (Barnyardgrass); rate 0.0158 kg/ha): 0.0
- herbicidal rating ECHCG (ECHCG (Barnyardgrass); rate 0.0315 kg/ha): 1.0
- herbicidal rating ECHCG (ECHCG (Barnyardgrass); rate 0.0630 kg/ha): 4.0
- Preemergence herbicidal rating ZEAMX (ZEAMX (Corn, Field); rate 0.0156 kg/ha): 0.0
- Preemergence herbicidal rating ZEAMX (ZEAMX (Corn, Field); rate 0.0313 kg/ha): 1.0
- Preemergence herbicidal rating ZEAMX (ZEAMX (Corn, Field); rate 0.0625 kg/ha): 1.0
- Preemergence herbicidal rating ZEAMX (ZEAMX (Corn, Field); rate 0.1250 kg/ha): 1.0
- Preemergence herbicidal rating ZEAMX (ZEAMX (Corn, Field); rate 0.2500 kg/ha): 2.0
- herbicidal rating AMBEL (AMBEL (Ragweed, Common) [2]; rate 0.0158 kg/ha): 4.0
- herbicidal rating AMBEL (AMBEL (Ragweed, Common) [2]; rate 0.0315 kg/ha): 9.0
- herbicidal rating AMBEL (AMBEL (Ragweed, Common) [2]; rate 0.0630 kg/ha): 7.0
- Herbicidal rating MOOVA (MOOVA (Monochoria); [12]): 6.0
- Herbicidal rating MOOVA (MOOVA (Monochoria); [13]): 8.0
- Herbicidal rating MOOVA (MOOVA (Monochoria); [14]): 9.0
- Herbicidal rating MOOVA (MOOVA (Monochoria); [15]): 9.0
- Preemergence herbicidal rating CHEAL ([3]; rate 0.0156 kg/ha): 9.0
- Preemergence herbicidal rating CHEAL ([3]; rate 0.0313 kg/ha): 9.0
- Preemergence herbicidal rating CHEAL ([3]; rate 0.0625 kg/ha): 7.0
- Preemergence herbicidal rating CHEAL ([3]; rate 0.1250 kg/ha): 9.0
- Preemergence herbicidal rating CHEAL ([3]; rate 0.2500 kg/ha): 9.0
- CYPIR herbicidal effect rating (CYPIR (Rice Flatsedge); 0.0313 kg/ha): 4.5
- CYPIR herbicidal effect rating (CYPIR (Rice Flatsedge); 0.0625 kg/ha): 6.5
- CYPIR herbicidal effect rating (CYPIR (Rice Flatsedge); 0.1250 kg/ha): 8.5
- CYPIR herbicidal effect rating (CYPIR (Rice Flatsedge); 0.2500 kg/ha): 9.0
- ECHORC herbicidal effect rating ([4]; 0.0313 kg/ha): 6.0
- ECHORC herbicidal effect rating ([4]; 0.0625 kg/ha): 7.0
- ECHORC herbicidal effect rating ([4]; 0.1250 kg/ha): 7.0
- ECHORC herbicidal effect rating ([4]; 0.2500 kg/ha): 8.0
- Herbicidal rating SAGPY [5, 12]: 0.0
- Herbicidal rating SAGPY [5, 13]: 0.0
- Herbicidal rating SAGPY [5, 14]: 0.0
- Herbicidal rating SAGPY [5, 15]: 0.0
